Results taken from the CheMixHub drug solubility set.

Experiment: xn = mol fraction of the nth substance listed, in the solute-free solvent

CC(S)C(=O)NCC(=O)O (configuration not stated) + CC(C)CO + Cc1ccccc1
solubility (g/100 g solution)
Conditions	273.15 K	278.15 K	283.15 K	288.15 K	293.15 K	298.15 K	303.15 K	308.15 K	313.15 K	318.15 K
x2 = 0.2371	0.622	0.677	0.744	0.819	0.9	0.989	1.09	1.21	1.34	1.48
x2 = 0.4531	1.14	1.3	1.45	1.64	1.87	2.12	2.37	2.63	2.92	3.35
x2 = 0.6509	1.71	1.98	2.28	2.67	3.04	3.56	4.09	4.71	5.39	6.3
x2 = 0.8325	2.92	3.45	4.01	4.57	5.19	5.87	6.57	7.38	8.31	9.34

O=C(NC(C(=O)O)c1ccccc1)OCc1ccccc1 (configuration not stated) + CCO + O
solubility (g/100 g solution)
Conditions	x2 = 0.1	x2 = 0.2	x2 = 0.3	x2 = 0.4	x2 = 0.5	x2 = 0.6	x2 = 0.7	x2 = 0.8	x2 = 0.9
283.15 K	0.0534	0.628	1.49	2.83	4.36	6.29	8.19	11.1	11.8
293.15 K	0.0958	0.786	2.21	4.37	6.76	9.75	13.4	17.7	18.1
303.15 K	0.153	1.18	3.44	7.93	12.3	17.6	21.9	26.9	27.3
313.15 K	0.239	1.91	6.85	13.9	22.6	29.6	35.5	39.3	40.2
323.15 K	0.396	3.17	12.7	24	37.5	45.5	49.1	51.8	52.6

Cc1nc2n(c(=O)c1CCN1CCC(c3noc4cc(F)ccc34)CC1)CCCC2 + CC(C)O + O
solubility (g/100 g solution)
Conditions	278.15 K	283.15 K	288.15 K	293.15 K	298.15 K	303.15 K	308.15 K	313.15 K
x2 = 0.1139	0.369	0.473	0.605	0.788	0.98	1.22	1.52	1.88
x2 = 0.1664	1.41	1.66	1.99	2.47	2.94	3.63	4.31	5.25
x2 = 0.2308	2.72	3.2	3.94	4.7	5.66	6.83	8.2	9.98
x2 = 0.3101	4.21	4.9	5.85	6.92	8.29	9.97	11.9	14.2
x2 = 0.4116	4.95	5.81	6.87	8.09	9.69	11.5	13.5	16.3
x2 = 0.5454	4.55	5.34	6.38	7.46	8.78	10.4	12.3	14.6
x2 = 0.7297	2.53	3.02	3.63	4.31	5.08	6.06	7.28	8.7

CC(S)C(=O)NCC(=O)O (configuration not stated) + CCCCO + CC#N
solubility (g/100 g solution)
Conditions	273.15 K	278.15 K	283.15 K	288.15 K	293.15 K	298.15 K	303.15 K	308.15 K	313.15 K	318.15 K
x2 = 0.1216	3.87	4.43	4.99	5.57	6.21	6.84	7.49	8.19	8.94	9.75
x2 = 0.2697	4.29	4.96	5.69	6.46	7.28	8.08	8.92	9.79	10.7	11.9
x2 = 0.4538	4.43	4.94	5.58	6.3	7.26	8.29	9.41	10.6	11.8	13
x2 = 0.689	4.42	5.29	6.26	7.32	8.38	9.51	10.7	12	13.3	14.7

FC(F)(F)c1cccnc1Cl + CN(C)C=O + CCO
solubility (g/100 g solution)
Conditions	263.15 K	268.15 K	273.15 K	278.15 K	283.15 K	288.15 K	293.15 K	298.15 K	303.15 K
x2 = 0.2013	36.2	43.5	51.6	59	67	74.8	82.5	89.4	95.4
x2 = 0.3352	41.2	48.1	56.3	62.5	69.5	77	83.4	90.3	96
x2 = 0.5291	47.4	53.8	60.5	66.9	73.2	79.9	85.7	91.4	96.8
x2 = 0.7496	51.2	57.2	63.7	69.6	75.4	81.3	86.7	92.5	97.7

Cc1nc2n(c(=O)c1CCN1CCC(c3noc4cc(F)ccc34)CC1)CCCC2 + CCO + O
solubility (g/100 g solution)
Conditions	278.15 K	283.15 K	288.15 K	293.15 K	298.15 K	303.15 K	308.15 K	313.15 K
x2 = 0.1436	0.173	0.214	0.262	0.329	0.397	0.487	0.592	0.73
x2 = 0.2069	0.628	0.744	0.919	1.1	1.4	1.68	2.06	2.58
x2 = 0.2812	1.72	2.03	2.47	2.94	3.58	4.32	5.34	6.64
x2 = 0.3627	3.31	3.98	4.66	5.53	6.67	8.06	9.77	12
x2 = 0.4768	4.74	5.58	6.59	7.76	9.19	11	13.2	15.9
x2 = 0.6101	4.86	5.65	6.62	7.77	9.18	10.8	12.9	15.2
x2 = 0.779	3.01	3.56	4.18	4.97	5.91	7.06	8.5	10.1

CCOC(=O)OC1=C(c2cc(C)ccc2C)C(=O)NC12CCC(OC)CC2 (configuration not stated) + CO + O
solubility (g/100 g solution)
Conditions	278.15 K	283.15 K	288.15 K	293.15 K	298.15 K	303.15 K	308.15 K	313.15 K	318.15 K
x2 = 0.2	0.00416	0.0064	0.0104	0.0162	0.0253	0.0409	0.0592	0.0833	0.132
x2 = 0.4	0.292	0.365	0.473	0.613	0.803	1.07	1.44	1.9	2.64
x2 = 0.6	1.47	1.82	2.22	2.8	3.56	4.5	5.89	7.65	9.83
x2 = 0.8	3.55	4.27	5.22	6.38	8.03	10.1	12.7	15.7	19.2

N#CCNC(=O)c1cnccc1C(F)(F)F + CCOC(C)=O + CCO
solubility (g/100 g solution)
Conditions	283.15 K	288.15 K	293.15 K	298.15 K	303.15 K	308.15 K	313.15 K	318.15 K	323.15 K
x2 = 0.2	4.4	5.22	6.22	7.38	8.72	10.2	12	14	16.2
x2 = 0.4	5.66	6.57	7.58	8.78	10.1	11.6	13.2	15.2	17.2
x2 = 0.6	5.43	6.27	7.24	8.3	9.5	10.8	12.3	13.9	15.6
x2 = 0.8	4.38	5.03	5.77	6.59	7.53	8.56	9.69	10.9	12.3

CCOc1ccccc1C(N)=O + CC#N + CCO
323.15 K
Conditions	solubility (g/100 g solution)
x2 = 0.1	17.4
x2 = 0.2	19.8
x2 = 0.3	21.8
x2 = 0.4	23.3
x2 = 0.5	23.9
x2 = 0.6	23.3
x2 = 0.7	21.7
x2 = 0.8	19.3
x2 = 0.9	16.4

CCOc1ccccc1C(N)=O + CC#N + CC(C)O
solubility (g/100 g solution)
Conditions	x2 = 0.1	x2 = 0.2	x2 = 0.3	x2 = 0.4	x2 = 0.5	x2 = 0.6	x2 = 0.7	x2 = 0.8	x2 = 0.9
298.15 K	4.36	5.28	6.05	6.41	6.8	6.66	6.22	5.59	4.71
303.15 K	5.5	6.58	7.52	8.13	8.55	8.45	7.99	7.3	6.12
308.15 K	6.49	7.95	9.11	10.1	10.4	10.5	10.1	9.2	7.99
313.15 K	8.08	9.85	11.3	12.4	13	13	12.6	11.7	9.97
318.15 K	10.2	12.3	14.1	15.4	16.1	16.2	15.6	14.4	12.6
323.15 K	13	15.5	17.7	19.2	20.1	20.3	19.6	18.3	16.1

CCOc1ccccc1C(N)=O + CC(C)O + CC#N
293.15 K
Conditions	solubility (g/100 g solution)
x2 = 0.1	3.74
x2 = 0.2	4.36
x2 = 0.3	4.92
x2 = 0.4	5.26
x2 = 0.5	5.44
x2 = 0.6	5.14
x2 = 0.7	4.81
x2 = 0.8	4.2
x2 = 0.9	3.48

Nc1nc2ccc(OC(F)(F)F)cc2s1 + CC(C)=O + O
solubility (g/100 g solution)
Conditions	278.15 K	283.15 K	288.15 K	293.15 K	298.15 K	303.15 K	308.15 K	313.15 K	318.15 K	323.15 K
x2 = 0.1174	2.79	2.99	3.26	3.49	3.89	4.23	4.48	4.79	4.98	5.23
x2 = 0.1714	6.6	6.96	7.42	7.95	8.29	8.75	9.09	9.43	9.77	10.1
x2 = 0.2367	25.5	25.9	26.5	27	27.6	28	28.5	29.1	29.8	30.1
x2 = 0.3175	40.2	40.6	40.9	41.1	41.5	41.8	42	42.3	42.7	43
x2 = 0.4203	55.1	56.3	57	57.7	59	60.2	61.1	62.2	62.9	63.6
x2 = 0.5537	70.6	71.7	72.7	73.6	74.5	75.3	76.2	76.7	77.2	77.8
x2 = 0.7361	68	69	69.9	71	71.8	72.8	73.6	74.2	75	75.7

COC(=O)C(N)CS.Cl (configuration not stated) + CCO + ClCCl
solubility (g/100 g solution)
Conditions	x2 = 0.05	x2 = 0.1	x2 = 0.2	x2 = 0.3	x2 = 0.4	x2 = 0.5	x2 = 0.6	x2 = 0.7	x2 = 0.8	x2 = 0.9
283.15 K	0.323	0.991	1.88	2.62	3.2	3.86	4.64	5.33	6.02	6.92
288.15 K	0.362	1.02	2.21	3.14	3.93	4.46	5.07	5.91	6.77	7.59
293.15 K	0.393	1.21	2.46	3.54	4.26	5.23	5.88	6.62	7.47	8.49
298.15 K	0.43	1.4	2.7	4.09	4.98	5.89	6.66	7.51	8.75	9.98
303.15 K	0.493	1.42	3.03	4.65	5.72	6.77	7.79	8.77	10.3	11.9
